Marks after values point to notes of the source that are not given here.
How the values were obtained:
[1] = system: streptozotocin-nicotinamide induced type 2 diabetic Wistar rats; test: Fasting blood glucose and oral glucose tolerance test in STZ-NA diabetic rats; format: in vivo; conditions: mean ± SD; for OG1 (OGTT 60 min), Day 29 Readings (after treatment) / OG2 (OGTT 120 min), Day 29 Readings (after treatment) / OG1 (OGTT 60 min), Day 1 Readings (baseline) / OG2 (OGTT 120 min), Day 1 Readings (baseline): glucose 2 g/kg; for OG1 (OGTT 60 min), Day 29 Readings (after treatment) / OG2 (OGTT 120 min), Day 29 Readings (after treatment) / FBG, Day 29 Readings (after treatment) / FBG, Day 1 Readings (baseline) / OG1 (OGTT 60 min), Day 1 Readings (baseline) / OG2 (OGTT 120 min), Day 1 Readings (baseline): n = 6; for FBG, Day 1 Readings (baseline): Day 1 baseline (4th day after induction); for OG1 (OGTT 60 min), Day 1 Readings (baseline) / OG2 (OGTT 120 min), Day 1 Readings (baseline): Day 1 baseline; for Day 30 FBG: 30 days
Protocol: This study was done at the Department of Pharmacology, Kasturba Medical College, […] Academy of Higher Education, […]. The diabetic model that we have used in this study was STZ-NA model. DM was induced in male Wistar rats by giving NA and STZ injections, intraperitoneally. […] Citrate buffer (0.1 M), which has been used as solvent for mixing STZ, was made by dissolving solution of trisodium citrate (294.10 mg in 100 mL of distilled water) with citric acid solution (210.10 mg in 100 mL of distilled water) to attain pH 4.5. Ice was kept around the glass beaker containing Citrate buffer to maintain citrate buffer at lower temperatures. Normal control rats were administered with Citrate buffer alone intraperitoneally. […] Wistar rats were divided into seven groups, each group had six rats. Treatment for all the groups was started on the 4th day after diabetes induction procedure. The same was considered as Day 1 for treatment and continued for 30 days. The animals were treated for 30 days. The treatment schedule of various groups were as follows: Normal control (NC) (1 mL of 1% Tween 80, per oral), Diabetic control (DC) (1 mL of 1% Tween 80, per oral), two Standard control groups were treated with GLIB (5 mg/kg, per oral) and MET (500 mg/kg, per oral), two test groups were treated with bio-BTE (30 mg/kg, per oral and 60 mg/kg, per oral) and one test group was treated with RTE (30 mg/kg, per oral). The vehicle used for the study in all the groups were 1% Tween 80. Oral feeding of drugs was done using steel oral gavage tube (16 G, 7.6 cm). During the treatment period, rats also received standard pelleted chow (VRK Nutritional solutions) and water ad libitum during treatment. […] FBG, OG1 and OG2 values were estimated from blood drops that were obtained from rat tail tip using Accu-Check Glucometer. […] These serum samples were stored at -80 °C before insulin levels were assayed using DRG Rat insulin ELISA Kit.

[2] = system: streptozotocin-nicotinamide induced type 2 diabetic Wistar rats; test: Fasting serum insulin (DRG Rat insulin ELISA Kit) in STZ-NA diabetic rats; format: in vivo; conditions: 30 days, mean ± SD
Protocol: Wistar rats were divided into seven groups, each group had six rats. Treatment for all the groups was started on the 4th day after diabetes induction procedure. The same was considered as Day 1 for treatment and continued for 30 days. The animals were treated for 30 days. The treatment schedule of various groups were as follows: Normal control (NC) (1 mL of 1% Tween 80, per oral), Diabetic control (DC) (1 mL of 1% Tween 80, per oral), two Standard control groups were treated with GLIB (5 mg/kg, per oral) and MET (500 mg/kg, per oral), two test groups were treated with bio-BTE (30 mg/kg, per oral and 60 mg/kg, per oral) and one test group was treated with RTE (30 mg/kg, per oral). The vehicle used for the study in all the groups were 1% Tween 80. Oral feeding of drugs was done using steel oral gavage tube (16 G, 7.6 cm). […]
FBG was estimated in all rats before administration of STZ and NA and had FBG level less than 126 mg/dl. […] FBG values were measured at 0 min (before glucose administration) and OGTT readings (OG1 and OG2) were measured at 60 and 120 min after administration of glucose solution. […] On Day 30 of treatment, FBG was measured and after anaesthetizing rats with ether, blood was collected from overnight fasted rats using cardiac puncture into red-coloured procoagulant vacutainers and centrifuged at 3000 rpm for 7 min to obtain serum. […]

[3] = system: streptozotocin-nicotinamide induced type 2 diabetic Wistar rats; test: HOMA2 calculator: insulin resistance, insulin sensitivity, beta-cell function, and their correlation with serum insulin; format: in vivo; conditions: 30 days, mean ± SD
Protocol: FBG, OG1 and OG2 values were estimated from blood drops that were obtained from rat tail tip using Accu-Check Glucometer. […] These serum samples were stored at −80 °C before insulin levels were assayed using DRG Rat insulin ELISA Kit. […] One-way ANOVA followed by post hoc analysis with Tukey test was conducted to evaluate statistically significant differences in the study variables between treatment groups. Pearson two-tailed correlation analysis was used to evaluate the correlation between serum insulin and IR; serum insulin and %B; and serum insulin & %S. SPSS version 21.0 was used to conduct statistical analysis in this study.

Body weight measurement = format: in vivo, Wistar rats; conditions: for Body weight, Day 1: Day 1 of treatment (baseline), in g (unit assumed); for Body weight, Day 1 / Body weight, Day 30: mean ± SD; for Percentage change in body weight on Day 30 when compared to baseline, Gain (+)/Loss (−) / Body weight, Day 30: 30 days
Protocol: Wistar rats were divided into seven groups, each group had six rats. Treatment for all the groups was started on the 4th day after diabetes induction procedure. The same was considered as Day 1 for treatment and continued for 30 days. The animals were treated for 30 days. The treatment schedule of various groups were as follows: Normal control (NC) (1 mL of 1% Tween 80, per oral), Diabetic control (DC) (1 mL of 1% Tween 80, per oral), two Standard control groups were treated with GLIB (5 mg/kg, per oral) and MET (500 mg/kg, per oral), two test groups were treated with bio-BTE (30 mg/kg, per oral and 60 mg/kg, per oral) and one test group was treated with RTE (30 mg/kg, per oral). The vehicle used for the study in all the groups were 1% Tween 80. Oral feeding of drugs was done using steel oral gavage tube (16 G, 7.6 cm). During the treatment period, rats also received standard pelleted chow (VRK Nutritional solutions) and water ad libitum during treatment.
Body weight of the rats was measured before induction (on the day of induction), on Day 1 of treatment and also on Day 30 of treatment. Percentage change in body weight was calculated using the formula (BodyweightonDay30oftreatment−BodyweightonDay1oftreatment)/(BodyweightonDay1oftreatment)×100

Q: Which “OG1 (OGTT 60 min), Day 29 Readings (after treatment)” value ([1]; GLIB 5 mg/kg per oral daily) does the source give for `COc1ccc(Cl)cc1C(=O)NCCc1ccc(S(=O)(=O)NC(=O)NC2CCCCC2)cc1` [GLIB, Glibenclamide] here?
A: 154.17 ± 76.55^b mg/dL

Q: What about the “OG2 (OGTT 120 min), Day 29 Readings (after treatment)” value ([1]; GLIB 5 mg/kg per oral daily) of the same compound?
A: 117.50 ± 16.21^b mg/dL

Q: What about the “FBG, Day 29 Readings (after treatment)” value ([1]; GLIB 5 mg/kg per oral daily) of the same compound?
A: 95.17 ± 27.97^b mg/dL

Q: And the “FBG, Day 1 Readings (baseline)” value ([1]; GLIB 5 mg/kg per oral group)?
A: 130.5 ± 5.43^a mg/dL

Q: What about the “OG1 (OGTT 60 min), Day 1 Readings (baseline)” value ([1]; GLIB 5 mg/kg per oral group) of the same compound?
A: 420.67 ± 21.71^a mg/dL

Q: And the “OG2 (OGTT 120 min), Day 1 Readings (baseline)” value ([1]; GLIB 5 mg/kg per oral group)?
A: 358.50 ± 34.65^a mg/dL

Q: What about the “Day 30 FBG” value ([1]; GLIB 5 mg/kg per oral) of the same compound?
A: 96.67 ± 26.49^b mg/dL

Q: What about the “Day 30 Serum Insulin” value ([2]; GLIB 5 mg/kg per oral) of the same compound?
A: 145.68 ± 41.06^abd pmol/L

Q: And the “Day 30 Beta cell function (%B)” value ([3]; GLIB 5 mg/kg per oral)?
A: 183.13 ± 68.69^b %

Q: And the “Day 30 Insulin Resistance (IR)” value ([3]; GLIB 5 mg/kg per oral)?
A: 2.70 ± 0.84^abd

Q: What about the “Day 30 Insulin Sensitivity (%S)” value ([3]; GLIB 5 mg/kg per oral) of the same compound?
A: 41.08 ± 16.03%

Q: What about the “Body weight, Day 1” value (Body weight measurement; GLIB 5 mg/kg per oral group) of the same compound?
A: 179.67 ± 3.08

Q: What about the “Percentage change in body weight on Day 30 when compared to baseline, Gain (+)/Loss (−)” value (Body weight measurement; GLIB 5 mg/kg per oral) of the same compound?
A: +23%

Q: And the “Body weight, Day 30” value (Body weight measurement; GLIB 5 mg/kg per oral)?
A: 221 ± 8.07^abcd

Q: Which results are given for `CN(C)C(=N)N=C(N)N` [MET, Metformin]?
A: OG1 (OGTT 60 min), Day 29 Readings (after treatment) ([1]; MET 500 mg/kg per oral daily): 329.33 ± 12.91^abd mg/dL; OG2 (OGTT 120 min), Day 29 Readings (after treatment) ([1]; MET 500 mg/kg per oral daily): 203.67 ± 58.96^b mg/dL; FBG, Day 29 Readings (after treatment) ([1]; MET 500 mg/kg per oral daily): 144.83 ± 53.86^b mg/dL; FBG, Day 1 Readings (baseline) ([1]; MET 500 mg/kg per oral group): 128.33 ± 5.32^a mg/dL; OG1 (OGTT 60 min), Day 1 Readings (baseline) ([1]; MET 500 mg/kg per oral group): 421.67 ± 39.52^a mg/dL; OG2 (OGTT 120 min), Day 1 Readings (baseline) ([1]; MET 500 mg/kg per oral group): 301.50 ± 64.05^a mg/dL; Day 30 FBG ([1]; MET 500 mg/kg per oral): 141.00 ± 52.33^abcd mg/dL; Day 30 Serum Insulin ([2]; MET 500 mg/kg per oral): 35.63 ± 16.81^c pmol/L; Day 30 Beta cell function (%B) ([3]; MET 500 mg/kg per oral): 42.03 ± 37.09^acd %; Day 30 Insulin Resistance (IR) ([3]; MET 500 mg/kg per oral): 0.73 ± 0.31^bc; Day 30 Insulin Sensitivity (%S) ([3]; MET 500 mg/kg per oral): 160.70 ± 68.64^abcd %; Body weight, Day 1 (Body weight measurement; MET 500 mg/kg per oral group): 183.67 ± 7.82; Percentage change in body weight on Day 30 when compared to baseline, Gain (+)/Loss (−) (Body weight measurement; MET 500 mg/kg per oral): −12.07%; Body weight, Day 30 (Body weight measurement; MET 500 mg/kg per oral): 161.5 ± 7.74^acd

Reference: PMC8377175, “Antidiabetic effect of bio-enhanced preparation of turmeric in streptozotocin-nicotinamide induced type 2 diabetic Wistar rats” (Journal of Ayurveda and Integrative Medicine, 2021)
